# Key:
# [1] = test system: extracellular matrix (ECM) of the pancreatic tumors; details: by downregulating hyaluronan synthesis and preventing collagen cross linking; cited from earlier work
# [2] = test system: transforming growth factor-β (TGFβ) signaling in cancer associated fibroblasts (CAFs); details: dose of 0.2 mg/kg; cited from earlier work
# [3] = Phase 1 study of minnelide given intravenously in patients with Advanced GI Tumors; type: in vivo, human; details: IV
# Source text: Intravenous Minnelide. Phase 1, Multi-Center, Open-Label, Dose-Escalation, Safety, Pharmacokinetic, and Pharmacodynamic Study of minnelide given intravenously daily for 21 days followed by 7 days off schedule in patients with Advanced GI Tumors. A second dosing schedule of minnelide given intravenously QD for 5 days with 2 days off for three weeks followed by a 7-day rest period was also explored during this study. A total of 45 patients enrolled in the Phase 1 study, however 3 patients were not dosed with study drug. The remaining 42 patients were dosed in the study. The primary reason for the discontinuation of treatment was disease progression. There were 6 deaths in the study, but these occurred after the study drug had ended and were within the 30-day follow-up period. […] One patient who died from respiratory failure, and this was also found to be not related to use of the study drug.
# [4] = test system: pancreatic and ovarian tumor cells; experiment: In vitro antitumor activity (activated with alkaline phosphatase to release triptolide); type: cell-based
# [5] = test system: S2-VP10 tumor cells; experiment: Orthotopic S2-VP10 pancreatic tumor model in athymic nude mice; type: in vivo
# Protocol: A preclinical study of minnelide was conducted in mice. Female athymic nude mice (NCI nu/nu; 4 to 6 weeks old) were anesthetized with xylazine/ketamine, and S2-VP10 tumor cells embedded in Matrigel were implanted into the pancreatic tail (3×10^5 cells/mouse). Twelve days after tumor implantation (Day 0), animals were randomized to receive saline, nab-paclitaxel plus gemcitabine (Gem/Abx; 250/25 mg/kg), or minnelide plus nab-paclitaxel plus gemcitabine (Minn/Gem/Abx; 0.15/250/25 mg/kg or 0.21/250/25 mg/kg) (10 animals/group). Minnelide was administered once daily (QD) by oral gavage (PO). Treatment continued until Day 28 when animals were sacrificed.
# [6] = Blood counts of patients during minnelide dosing and withholding; type: in vivo, human
# Source text: A drop in blood counts is usually seen within the first 5-7 days of the start of minnelide and resolves in 4-8 days of withholding of minnelide.
# CBC with differential was done on days 1, 8, 15, 22 and more frequently as clinically indicated. Patient were hospitalized for close monitoring when the ANC level was <1000 mm^3 (grade 3 or higher) or platelet was <100,000 cells/mm^3 at any time. Minnelide™ Capsules would not resume until the ANC level was ≥1500 mm^3 or platelet was ≥100,000 cells/mm^3.
# [7] = test system: pancreatic and ovarian cancer; experiment: Daily administration in models of pancreatic and ovarian cancer; type: in vivo; details: administered daily
# [8] = Phase 1 study of Minnelide Capsules alone or in combination with protein-bound paclitaxel in patients with Advanced Solid Tumors; type: in vivo, human
# Source text: Oral Minnelide. A Phase 1, Multi-Center, Open-Label, Dose-Escalation, Safety, Pharmacokinetic, and Pharmacodynamic Study of Minnelide™ Capsules given alone or in combination with protein-bound paclitaxel in patients with Advanced Solid Tumors.
# A total of 51 patients have been enrolled and dosed in the Phase 1 study, of whom […] were evaluable for safety (34 in the monotherapy regimen and 16 in the combination regimen). Twenty-nine patients have completed treatment in the monotherapy regimen, and 6 dose escalations have occurred. In the monotherapy regimen, one DLT has been observed, which occurred in the 1.25 mg cohort. […] As a result of this DLT, and out of an abundance of caution, 3 additional patients were enrolled in the 1.0 mg cohort.
# A total of 17 patients had been enrolled in combination therapy regimen. Two DLTs have been observed: one at the 0.25 mg minnelide and 125 mg/m^2 protein-bound paclitaxel dose level and one at the 0.25 mg minnelide and 100 mg/m^2 protein-bound paclitaxel dose level. […] A total of 2 SAEs occurred in this patient, neither of which were deemed related to the IP. As this was the first patient in the combination regimen to receive protein-bound paclitaxel with minnelide, the combination regimen was put on enrolment hold until further escalation parameters were introduced. The second DLT occurred in the first patient of the 0.25 mg minnelide and 100 mg/m^2 protein-bound paclitaxel cohort: a Grade 5 event of sepsis.
# [9] = test system: MIA-PaCa2 and PANC-1 pancreatic cancer cell lines; details: after incubation with triptolide; cited from earlier work
# [10] = test system: pancreatic tumor cells and CAFs; details: cited from earlier work
# [11] = test system: S2-013, S2-VP10 and Hs766T; details: metastatic lines; cited from earlier work
# [12] = Day 28, minnelide 0.15 mg/kg QD PO added to Gem/Abx 250/25 mg/kg, compared with Gem/Abx alone
# [13] = Day 28, minnelide 0.21 mg/kg QD PO added to Gem/Abx 250/25 mg/kg, compared with Gem/Abx alone
# [14] = overall, daily oral minnelide concurrently with Gem/Abx, compared with minnelide or Gem/Abx alone
# [15] = oral, monotherapy and combination
smiles,measurement,setting,value
"CC(C)[C@]12O[C@H]1[C@@H]1O[C@]13[C@]1(O[C@H]1C[C@H]1C4=C(CC[C@@]13C)C(=O)OC4)[C@@H]2OCOP(=O)([O-])[O-].[Na+].[Na+] [minnelide, disodium; [(1S,2S,4S,5S,7S,8R,9R,11S,13S)-1-methyl-17-oxo-7-propan-2-yl-3,6,10,16-tetraoxaheptacyclo[11.7.0.0^2,4.0^2,9.0^5.7.09^,11.0^14,18]icos-14 (18)-en-8-yl]oxymethyl phosphate]",extracellular matrix (ECM) of pancreatic tumors,[1],depleted
same,TGFβ signaling in CAFs,[2],disrupts
same,"Anemia and thrombocytopenia Grade 3 and 4, drug related, patients",[3],22%
same,Serious Adverse Events related to the study drug,[3],six
same,"Serious Adverse Events, total",[3],28
same,"TEAEs leading to discontinuation probably related to study drug, considered DLTs",[3],two
same,"neutropenia grade 3 and 4 of short duration, drug related",[3],observed at all dose levels
same,patients with Serious Adverse Events,[3],17
same,patients with at least 1 AE considered related to the study drug,[3],32
same,"patients with neutropenic fever and neutropenic infection, drug related",[3],three
same,deaths in the study,"[3]; 42 patients dosed, within 30-day follow-up, not related to study drug",6
same,patients who discontinued the study drug due to TEAEs,[3]; all Grade 3,3
same,incidence of most commonly reported TEAEs regardless of causality,"[3]; hypoalbuminemia, anemia, hypoproteinemia, fatigue, neutropenia, leukopenia, thrombocytopenia, nausea, hypocalcemia, diarrhea, hyperphosphatemia, constipation, vomiting, hyponatremia, lymphopenia, abdominal pain, dehydration, hyperglycemia, peripheral edema, hypophosphatemia, headache",> 20%
same,"other possibly related side effects of any grade, patients","[3]; nausea, vomiting, diarrhea, constipation, anorexia, stomatitis, cerebellar toxicity, embolism, dyspnea",≤ 3%
same,time to resolution of neutropenia,[3]; not receiving treatment,within a couple of days
same,antitumor activity in vitro,[4],potent antitumor activity
same,tumor volumes,[5]; [12],further reduced
same,tumor weights,[5]; [12],further reduced
same,tumor volumes,[5]; [13],further reduced
same,tumor weights,[5]; [13],further reduced
same,tumor volumes,[5]; [14],decreased
same,tumor weights,[5]; [14],decreased
same,time to drop in blood counts,[6]; from the start of minnelide,5 to 7 days
same,time to resolution of drop in blood counts,[6]; withholding of minnelide,4 to 8 days
same,animal survival,[7],markedly improved
same,tumor volumes,[7],significantly reduced
same,tumor weights,[7],significantly reduced
same,DLTs in five additional patients,[8]; 0.25 mg minnelide and 100 mg/m^2 protein-bound paclitaxel cohort,no DLTs observed
same,DLTs observed,"[8]; 0.25 mg minnelide and 100 mg/m^2 protein-bound paclitaxel dose level, Grade 5 sepsis",one
same,DLTs observed,[8]; 0.25 mg minnelide and 125 mg/m^2 protein-bound paclitaxel dose level,one
same,DLTs observed,"[8]; combination regimen with protein-bound paclitaxel, 17 patients",Two
same,DLT observed,"[8]; oral monotherapy regimen, in the 1.25 mg cohort, Grade 5 sepsis",one
same,related SAEs by type,"[8]; oral, combination therapy with protein-bound paclitaxel",one event each of Grade 5 sepsis and Grade 2 esophagitis
same,SAEs related to the investigational product,[8]; [15],8
same,"SAEs, total",[8]; [15],45
same,patients with SAEs,[8]; [15],25
same,related SAEs by type,"[8]; oral, patients on monotherapy","1 event each of Grade 5 sepsis, Grade 4 sepsis, Grade 3 nausea, Grade 3 polymicrobial bacteraemia, Grade 3 intractable nausea, Grade 3 hypokalaemia, and Grade 2 enteritis"
same,AE incidence: Lower extremity oedema,[8]; regardless of causality,24%
same,AE incidence: abdominal distension,[8]; regardless of causality,12%
same,AE incidence: abdominal pain,[8]; regardless of causality,30%
same,AE incidence: anemia,[8]; regardless of causality,18%
same,AE incidence: back pain,[8]; regardless of causality,12%
same,AE incidence: chills,[8]; regardless of causality,12%
same,AE incidence: constipation,[8]; regardless of causality,24%
same,AE incidence: dehydration,[8]; regardless of causality,18%
same,AE incidence: dizziness,[8]; regardless of causality,12%
same,AE incidence: dyspnoea,[8]; regardless of causality,12%
same,AE incidence: fatigue,[8]; regardless of causality,18%
same,AE incidence: gastroesophageal reflux disease,[8]; regardless of causality,12%
same,AE incidence: leukopenia,[8]; regardless of causality,12%
same,AE incidence: local swelling,[8]; regardless of causality,18%
same,AE incidence: nausea,[8]; regardless of causality,24%
same,AE incidence: neutropenia,[8]; regardless of causality,30%
same,AE incidence: neutrophil count decreased,[8]; regardless of causality,13%
same,AE incidence: pain,[8]; regardless of causality,12%
same,AE incidence: pleural effusion,[8]; regardless of causality,12%
same,AE incidence: pyrexia,[8]; regardless of causality,24%
same,AE incidence: skin irritation,[8]; regardless of causality,12%
same,AE incidence: vomiting,[8]; regardless of causality,18%
CC(C)[C@]12O[C@H]1[C@@H]1O[C@]13[C@]1(O[C@H]1C[C@H]1C4=C(CC[C@@]13C)C(=O)OC4)[C@@H]2O [triptolide],caspase-3 activity,[9],significantly increased
same,cytochrome c release from mitochondria into the cytosol,[9],significantly increased
same,"SE-associated genes (BRD4, MYC, RNA Pol II, Collagen 1) expression","[10]; both cell types, mRNA and protein levels",downregulation
same,cytotoxicity,[10]; both pancreatic tumor cells and CAFs,cytotoxic
same,autophagic cell death,[11],induces autophagic cell death
